What follows are molecules tested against T1, COX-2 (Homo sapiens, UniProt P35354) (assay: Inhibition of COX: arachidonic acid metabolism). Details: 25 nmoles compound with 25 nmoles AA, 250 μL, 2 min.
T1 construct: purchased Cayman Chemical
T1 sequence (P35354 18-604): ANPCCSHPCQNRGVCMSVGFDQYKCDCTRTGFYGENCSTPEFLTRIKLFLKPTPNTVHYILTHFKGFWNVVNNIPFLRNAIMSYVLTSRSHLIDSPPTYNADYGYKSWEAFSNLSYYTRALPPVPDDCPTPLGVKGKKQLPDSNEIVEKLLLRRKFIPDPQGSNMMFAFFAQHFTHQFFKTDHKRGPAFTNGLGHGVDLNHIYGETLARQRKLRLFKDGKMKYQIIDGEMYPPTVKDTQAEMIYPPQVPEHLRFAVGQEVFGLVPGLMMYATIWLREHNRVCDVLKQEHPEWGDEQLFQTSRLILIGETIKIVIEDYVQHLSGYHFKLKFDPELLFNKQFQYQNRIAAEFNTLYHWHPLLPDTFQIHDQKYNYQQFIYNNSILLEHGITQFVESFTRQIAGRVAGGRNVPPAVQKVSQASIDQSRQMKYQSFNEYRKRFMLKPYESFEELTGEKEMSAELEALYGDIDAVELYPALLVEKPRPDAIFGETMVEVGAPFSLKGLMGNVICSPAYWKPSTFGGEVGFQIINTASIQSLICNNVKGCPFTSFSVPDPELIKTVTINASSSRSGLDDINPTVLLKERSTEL
Assay type: biochemical
Description: All compound solutions were made to a concentration of 10 mM in DMSO. Three tests were performed on each compound: hydrolysis, to determine the stability of the compound in assay conditions without the enzyme present; metabolism, to determine the stability of the compound with the enzyme present; and inhibition of arachidonic acid (AA) metabolism.
To test the stability of the compounds in enzyme assay conditions, 25 nmoles of the compound were incubated with 12.5 μl 100 uM hematin in assay buffer (0.1M PH8.0 Tris-HCl, 2 mM phenol, 5 mM EDTA, 0.1% BSA, final volume of 250 μL) for 2 minutes at 25° C. Samples (100 μL) were taken at the start of the assay and after 2 minutes, diluted 1:5 with acetonitrile and centrifuged (20,000 RCF, five minutes, room temperature) to precipitate the proteins. The resulting supernatant was injected onto the HPLC. Calculations for determining the percent compound remaining are described in the following equation: % R=Peak Area(T2)/Peak Area(T0) To determine whether or not the compounds were good substrates for COX enzyme, 25 nmoles of the compound were incubated with 12.5 μl COX enzyme (purchased form Cayman Chemical) and 5 uM hematin in assay buffer (final volume 250 μL). The reaction mixture was treated in the same manner as described above. Concentrations of AA were calculated using external standards. […] Again the reaction mixture was treated in the same manner as described above and the concentrations of AA were calculated using external standards. Percent inhibition was calculated using the following equation: % Inhib.=(AA0-AA2)i/(AA0-AA2)s where (AA0-AA2)i is the amount of arachidonic acid metabolized over 2 minutes with the inhibitor present and (AA0-AA2)s is the amount of arachidonic acid metabolized over 2 minutes when the inhibitor is not present. […] The reaction mixtures were treated as described above and the amount of AA metabolized was calculated. The software package GraphPad Prism was utilized to calculate IC50 and Ki. HPLC Conditions:
Chromatographic separation was achieved using an Ultrasphere ODS Pre-column (4.6×45 mm) from Beckman. Hardware consisted of a Waters Millennium HPLC system with a 20 μL injection loop. The mobile phase consisted of 8.5% o-phosphoric acid:acetonitrile (3:7), run isocratically at a rate of 1 mL/min and detection at 204 nm. The total run time was 8 minutes with AA at 6.0 minutes.

| Compound | COX-2 % Inhibition [%] |
| --- | --- |
| O=C(CCC/C=C\C/C=C\C/C=C\C/C=C\CCCCc1ccccc1)NCC1CC1 [Compound A1] | 78.4 |
| O=C(CCC/C=C\C/C=C\C/C=C\C/C=C\CCc1ccccc1)Nc1ccc(O)cc1 [Compound A3] | 77.4 |
| COc1cc(CNC(=O)CCC/C=C\C/C=C\C/C=C\C/C=C\CCCCN=[N+]=[N-])ccc1O [Compound A7] | 42.4 |
| COc1cc(CNC(=O)CCC/C=C\C/C=C\C/C=C\C/C=C\CCCCN=C=S)ccc1O [Compound A12] | 46.2 |
